Laboratory results taken from PMC7321408, “One-Pot Multicomponent Synthesis and Bioevaluation of Tetrahydroquinoline Derivatives as Potential Antioxidants, α-Amylase Enzyme Inhibitors, Anti-Cancerous and Anti-Inflammatory Agents” (Molecules, 2020).
Converted amounts (≈) assume the structure as drawn. Where two headings read alike, the source gives them in different places.

What was measured:
[1] = DPPH free radical scavenging assay; conditions: mean ± SEM, n = 3
Outline: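 Compounds at 200, 66.6, 22.2 and 7.4 µg/mL were mixed with DPPH radical, with DMSO as the negative control. Absorbance was read at 630 nm, and % scavenging was calculated as (1 − Abs/Abc) × 100 against the control.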

[2] = test system: raw macrophages; assay: MTT cytotoxicity against raw macrophages; format: cell-based, albino rats; conditions: mean ± SEM, n = 3
Outline: (§1)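 Peritoneal macrophages from albino rats were treated for 24 h at 37 °C, 5% CO2 with test compounds at 100, 50, 10 and 1 µM or vehicle, from DMSO stocks. MTT was then added for 2 h, formazan dissolved in DMSO and absorbance read at 570 nm. % viability = blank-corrected sample over blank-corrected control ×100.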

[3] = MTT cytotoxicity against raw macrophages; format: cell-based, albino rats; conditions: albino, rat
Outline: as §1

[4] = test system: NO generated by LPS-induced macrophages; assay: Nitric oxide assay (Griess) in LPS-induced macrophages; format: cell-based, murine; conditions: Mus musculus, Macrophage, 18 h, LPS 1 µg/mL, read-out: % NO Production (Mean ± SEM)
Outline: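 Murine macrophages (1 × 10^6/well) pre-treated 2 h with compound at 100, 50, 10 or 1 µM, then LPS 1 µg/mL for 18 h. Nitrite in medium measured with Griess reagent at 540 nm against a NaNO2 standard curve; piroxicam as positive control, t-test for significance.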

[5] = test system: brine shrimp nauplii; assay: Brine shrimp lethality bioassay; format: in vivo; conditions: 24 h, n = 3
Outline: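 Ten hatched nauplii per well in artificial seawater were exposed to test compounds at 400, 200, 100 and 50 µg/mL under a lamp. Survivors counted after 24 h; percentage mortality calculated; triplicate.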

[6] = test system: Hep-2C cells; assay: MTT assay against Hep-2C cells; format: cell-based, Human; conditions: Homo sapiens, Hep2C, read-out: IC50 (Mean ± SEM) Hep-2C Cells
Protocol: Hep-2C cell line experiments were performed in the Immunology Lab of the National Institute of Health (NIH), Islamabad, Pakistan. Human cervix carcinoma cells Hep-2C (ATCC HB-8065) were cultured in Dulbecco’s modified Eagle’s medium (DMEM), comprising 10% fetal calf serum (10% FCS) and supplemented with 2 mM L-glutamine, 100 U/mL penicillin, 100 µg/mL streptomycin and 1 mM Na pyruvate, at 37 °C in a humidified 5% CO2 incubator.
The tetrazolium dye 3-(4, 5-dimethyl thiazolyl-2)-2, 5-diphenyltetrazolium bromide (MTT) was used to assess the cytotoxic potential of the test compounds. In living cells, MTT is reduced into its insoluble purple product formazan, which is measured spectrophotometrically.
Hep-2C cells, in a density of 1 × 10^6 (> 90% cell viability), were cultured in a 96-well plate and treated with different concentrations of the test compounds for 24, 48 and 72 h. Ten microliters of MTT (1 mg per mL) were added per well followed by incubation for 4 h. Insoluble formazan crystals were dissolved by adding 100 µL of DMSO. Cells were then incubated for another 2 h. Absorbance was measured at 570 nm by a microplate reader. Untreated Hep-2C cells were taken as controls and DMSO as a negative. % cell viability = (abssample − absblank)/(abscontrol − absblank) × 100

- IC50 (DPPH radical scavenging) ([1]; concentration to scavenge 50% of the DPPH radicals): 29.79 ± 0.26 µg/mL (≈ 121 µM)
SMILES: CCCN(CCC)CN1CCCc2ccccc21 [SF4, N-((3,4-dihydroquinolin-1(2H)-yl), methyl)-N-propylpropan-1 amine]
- % DPPH Scavenging Activity ([1]; 7.4 µg/mL): 18.12 ± 0.20%
- % DPPH Scavenging Activity ([1]; 22.22 µg/mL): 41.63 ± 0.28%
- % DPPH Scavenging Activity ([1]; 66.66 µg/mL): 53.65 ± 0.14%
- % DPPH Scavenging Activity ([1]; 200 µg/mL): 58.58 ± 0.33%
- IC50 [2]: 7.2 ± 0.05 µM
- viability at 24 h, 1 µM ([3]; peritoneal macrophages (raw macrophages), 1 µM, raw macrophages, 24 h, MTT, read-out: % Cell Viability): 79 ± 0.92%
- viability at 24 h, 10 µM ([3]; peritoneal macrophages (raw macrophages), 10 µM, raw macrophages, 24 h, MTT, read-out: % Cell Viability): 53 ± 0.63%
- viability at 24 h, 50 µM ([3]; peritoneal macrophages (raw macrophages), 50 µM, raw macrophages, 24 h, MTT, read-out: % Cell Viability): 42 ± 0.87%
- viability at 24 h, 100 µM ([3]; peritoneal macrophages (raw macrophages), 100 µM, raw macrophages, 24 h, MTT, read-out: % Cell Viability): 39 ± 0.88%
- IC50 at 24 h ([3]; primary peritoneal macrophages, mean ± SEM, n = 3): 7.208 ± 0.05 µM
- activity at 1 µM ([4]; 1 µM): 43.03 ± 0.41%
- activity at 10 µM ([4]; 10 µM): 39.17 ± 0.38%
- activity at 50 µM ([4]; 50 µM): 32.05 ± 0.31%
- activity at 100 µM ([4]; 100 µM): 20.2 ± 0.28%
- LD50 ± SEM (brine shrimp lethality) [5]: 100 ± 1.78 µg/mL
- IC50 ([6]; 24 h): 23.9 ± 1.07 µM
- IC50 ([6]; 48 h): 21.2 ± 1.2 µM
- IC50 ([6]; 72 h): 15.5 ± 1.03 µM
